Data taken from patent US8871934B2, “Fluorene compound and pharmaceutical use thereof” (Japan Tobacco Inc., priority 2008, dated 2014).
Read-outs that look alike come from different tables or passages of the source.

Target: human PDHK2 (hPDHK2) (Homo sapiens (Human), UniProt Q15119)
Assay: Inhibitory action of PDHK activity in vitro (kinase reaction, residual PDH activity measured)
Format: biochemical
Experimental: In the case of human PDHK2 (hPDHK2, Genbank Accession No. NM_002611), modified hPDHK2 cDNA wherein FLAG-Tag sequence is added to the N terminal by a polymerase linkage reaction was prepared based on hPDHK2 cDNA clone (pReceiver-M01/PDK2-GeneCopoeia), and cloned into a vector (pET17b-Novagen). The recombinant construct was transformed into Escherichia coli (DH5α-TOYOBO). The recombinant clones were identified, plasmid DNA was isolated and subjected to the DNA sequence analysis. One clone which had the expected nucleic acid sequence was selected for expression work.
During the assay, the hPDHK2 enzyme concentration was set to the minimal concentration at which PDH is inhibited the most.
0.05 U/mL PDH (porcine heart PDH complex, Sigma P7032) and 1.6 μg/mL hPDHK2 were mixed in a buffer (50 mmol/L 3-morpholinopropanesulfonic acid (pH 7.0), 20 mmol/L dipotassium hydrogen phosphate, 60 mmol/L potassium chloride, 2 mmol/L magnesium chloride, 0.4 mmol/L EDTA, and 0.2% Pluronic F-68, 2 mmol/L dithiothreitol), the mixture was incubated at 4° C. overnight to give PDH/hPDHK2 complex. The test compound was diluted with dimethyl sulfoxide (DMSO). PDH/hPDHK2 complex (20 μL), test compound (1.5 μL) and 3.53 μmol/L ATP (diluted with buffer, 8.5 μL) were added to a half area 96 well UV-transparent microplate (Corning 3679), and PDHK reaction was performed at room temperature for 45 min. Instead of the test compound, DMSO (1.5 μL) was added to a control well. DMSO (1.5 μL) was added instead of the test compound to a blank well for the measurement of the maximum rate of PDH reaction, and hPDHK2 was not added. Than, 10 μL of substrates (5 mmol/L sodium pyruvate, 5 mmol/L Coenzyme A, 12 mmol/L NAD, and 5 mmol/L thiamine pyrophosphate, diluted with buffer) was added. The mixture was incubated at room temperature for 90 min, and the residual PDH activity was measured. The absorbance at 340 nm before and after PDH reaction was measured on a microplate reader to detect NADH produced by the PDH reaction. The PDHK inhibitory rate (%) of the test compound was calculated from the formula [{(PDH activity of test compound—PDH activity of control)/PDH activity of blank—PDH activity of control)}×100]. The IC50 value was calculated from the concentrations of the test compound at two points enclosing 50% inhibition of the PDHK activity.

[1] = read-out: PDHK inhibitory activity IC50
[2] = PDHK inhibitory activity, class symbol of IC50
[3] = PDHK inhibitory activity (class symbol)

Row | Structure (SMILES) | IC50 (class symbol of IC50, read-out: PDHK inhibitory activity) [nM] | IC50 [1] [nM] | IC50 [2] [nM] | IC50 [3] [nM]
1 | Cc1cc(C(=O)N2CCC2)cc2c1-c1ccccc1C2(O)C(F)(F)F (single isomer, unassigned) [compound 135] | > 1000 | > 1000 | – | –
2 | Cc1cc(C(=O)N2CCC2)cc2c1-c1ccccc1C2(O)C(F)(F)F (single isomer, unassigned) [compound 136] | – | 25 | < 100 | –
3 | Cc1cc(C(=O)N2CC(OCCO)C2)cc2c1-c1ccccc1C2(O)C(F)(F)F (single isomer, unassigned) [compound 152] | – | 54 | < 100 | –
4 | COC(=O)COc1cc(Br)c2c(c1)C(O)(C(F)(F)F)c1ccccc1-2 (single isomer, unassigned) [compound 451, (4-bromo-9-hydroxy-9-trifluoromethyl-9H-fluoren-2-yloxy)-acetic acid methyl ester] | – | 102 | 100 to 1000 | –
5 | COC(=O)COc1cc(Br)c2c(c1)C(O)(C(F)(F)F)c1ccccc1-2 (single isomer, unassigned) [compound 452] | – | 2720 | > 1000 | –
6 | Cn1cc(-c2cc(OCC(N)=O)cc3c2-c2ccccc2C3(O)C(F)(F)F)cn1 (single isomer, unassigned) [compound 467] | – | 18 | < 100 | –
7 | COC(=O)c1cc(Br)c2c(c1)C(O)(C(F)(F)F)c1ccccc1-2 (single isomer, unassigned) [compound 473] | – | 90 | < 100 | –
8 | Cn1cc(-c2cc(OCC(=O)N3CC(CO)C3)cc3c2-c2ccccc2C3(O)C(F)(F)F)cn1 (single isomer, unassigned) [compound 474] | – | 19 | < 100 | –
9 | Cn1cc(-c2cc(OCC(=O)N3CC(O)C3)cc3c2-c2ccccc2C3(O)C(F)(F)F)cn1 (single isomer, unassigned) [compound 475] | – | 20 | < 100 | –
10 | NC(=O)COc1cc(-c2cnn(CCO)c2)c2c(c1)C(O)(C(F)(F)F)c1ccccc1-2 (single isomer, unassigned) [compound 477] | – | 18 | < 100 | –
11 | O=C(O)CCCOc1cc(Cl)c2c(c1)C(O)(C(F)(F)F)c1ccccc1-2 (single isomer, unassigned) [compound 479] | – | > 10000 | > 1000 | –
12 | COC(=O)COc1cc(Cl)c2c(c1)C(O)(C(F)(F)F)c1ccccc1-2 (single isomer, unassigned) [compound 481, (4-chloro-9-hydroxy-9-trifluoromethyl-9H-fluoren-2-yloxy)-acetic acid methyl ester] | – | 251 | 100 to 1000 | –
13 | Cn1cc(-c2cc(OCCCC(=O)O)cc3c2-c2ccccc2C3(O)C(F)(F)F)cn1 (single isomer, unassigned) [compound 504, 4-[9-hydroxy-4-(1-methyl-1H-pyrazol-4-yl)-9-trifluoromethyl-9H-fluoren-2-yloxy]-butyric acid] | – | 19 | < 100 | –
14 | Cn1cc(-c2cc(OCCC34CC5CC(CC(O)(C5)C3)C4)cc3c2-c2ccccc2C3(O)C(F)(F)F)cn1 (single isomer, unassigned) [compound 540] | – | 16 | < 100 | –
15 | NC(=O)Cn1cc(-c2cc(OCCC34CC5CC(CC(O)(C5)C3)C4)cc3c2-c2ccccc2C3(O)C(F)(F)F)cn1 (single isomer, unassigned) [compound 541] | – | 15 | < 100 | –
16 | OCCn1cc(-c2cc(OCCC34CC5CC(CC(O)(C5)C3)C4)cc3c2-c2ccccc2C3(O)C(F)(F)F)cn1 (single isomer, unassigned) [compound 542] | – | 15 | < 100 | –
17 | Cn1cc(-c2cc(OCCCCC(=O)O)cc3c2-c2ccccc2C3(O)C(F)(F)F)cn1 (single isomer, unassigned) [compound 552] | – | 17 | < 100 | –
18 | CC(C)n1cc(-c2cc(OCCCC(=O)O)cc3c2-c2ccccc2C3(O)C(F)(F)F)cn1 (single isomer, unassigned) [compound 553] | – | 18 | < 100 | –

Row | Structure (SMILES) | IC50 (class symbol of IC50, read-out: PDHK inhibitory activity) [nM] | IC50 [1] [nM] | IC50 [2] [nM] | IC50 [3] [nM]
19 | CCn1cc(-c2cc(OCCCC(=O)O)cc3c2-c2ccccc2C3(O)C(F)(F)F)cn1 (single isomer, unassigned) [compound 554] | – | 20 | < 100 | –
20 | O=C(O)CCCOc1cc(-c2cccnc2)c2c(c1)C(O)(C(F)(F)F)c1ccccc1-2 (single isomer, unassigned) [compound 561] | – | 50 | < 100 | –
21 | OC[C@@H](O)Cn1cc(-c2cc(F)cc3c2-c2ccccc2C3(O)C(F)(F)F)cn1 (single isomer, unassigned) [compound 565] | – | 18 | < 100 | –
22 | OC[C@H](O)Cn1cc(-c2cc(F)cc3c2-c2ccccc2C3(O)C(F)(F)F)cn1 (single isomer, unassigned) [compound 566] | – | 21 | < 100 | –
23 | Cn1cc(-c2cc(OCCCc3nnn[nH]3)cc3c2-c2ccccc2C3(O)C(F)(F)F)cn1 (single isomer, unassigned) [compound 573] | – | 18 | < 100 | –
24 | Cc1cc(-c2cnn(C(C)(C)C(=O)O)c2)c2c(c1)C(O)(C(F)(F)F)c1ccccc1-2 (single isomer, unassigned) [compound 574] | – | 52 | < 100 | –
25 | Cc1cc(-c2cnn(CC(C)(C)C(=O)O)c2)c2c(c1)C(O)(C(F)(F)F)c1ccccc1-2 (single isomer, unassigned) [compound 575] | – | 36 | < 100 | –
26 | Cc1cc(-c2cnn(C(C)(C)CC(=O)O)c2)c2c(c1)C(O)(C(F)(F)F)c1ccccc1-2 (single isomer, unassigned) [compound 576] | – | 30 | < 100 | –
27 | CC(CCOc1cc(-c2cnn(C)c2)c2c(c1)C(O)(C(F)(F)F)c1ccccc1-2)C(=O)O (single isomer, unassigned) [compound 577] | – | 23 | < 100 | –
28 | CCOc1cc(-c2cnn(CCC(=O)O)c2)c2c(c1)C(O)(C(F)(F)F)c1ccccc1-2 (single isomer, unassigned) [compound 581] | – | 19 | < 100 | –
29 | CCOc1cc(-c2cnn(CCCC(=O)O)c2)c2c(c1)C(O)(C(F)(F)F)c1ccccc1-2 (single isomer, unassigned) [compound 582] | – | 21 | < 100 | –
30 | COc1cc(-c2cnn(CCC(=O)O)c2)c2c(c1)C(O)(C(F)(F)F)c1ccccc1-2 (single isomer, unassigned) [compound 588] | – | 29 | < 100 | –
31 | COc1cc(-c2cnn(CCCC(=O)O)c2)c2c(c1)C(O)(C(F)(F)F)c1ccccc1-2 (single isomer, unassigned) [compound 589] | – | 25 | < 100 | –
32 | O=C(O)CCCOc1cc(-c2cncnc2)c2c(c1)C(O)(C(F)(F)F)c1ccccc1-2 (single isomer, unassigned) [compound 604] | – | 35 | – | < 100
33 | Cc1cc(-c2cnn(C(CO)CO)c2)c2c(c1)C(O)(C(F)(F)F)c1ccccc1-2 (single isomer, unassigned) [compound 605] | – | 19 | – | < 100
34 | Cc1cc(-c2cnn(CCCCC(=O)O)c2)c2c(c1)C(O)(C(F)(F)F)c1ccccc1-2 (single isomer, unassigned) [compound 606] | – | 28 | – | < 100
35 | CC(C)(Cn1cc(-c2cc(F)cc3c2-c2ccccc2C3(O)C(F)(F)F)cn1)C(=O)O (single isomer, unassigned) [compound 607] | – | 45 | – | < 100
